Data as given in USRE48599E1, “Compositions comprising TLIA-Ig fusion protein for the regulation of T regulatory cells, and methods for their use” (University of Miami, priority 2013, dated 2021).

Tests used:
[1] = test system: human Tregs; test: Human Treg proliferation in humanized mice (NSG-hu); format: in vivo
From the text: Commercial antibodies for use in flow cytometry, ELISA and in vivo studies were purchased from BD Pharmingen, eBioscience or BioLegend. The Armenian Hamster IgG Isotype control was bought from eBioscience. Armenian hamster hybridomas producing antibodies to mouse TNFRSF25 (4C12, agonistic) were generated as described in Fang, et al. 2008. Essential role of TNF receptor superfamily 25 (TNFRSF25) in the development of allergic lung inflammation. J Exp Med 205:1037-1048. Briefly, 4C12, hTL1A-Ig and rmTL1A-Ig were produced in hollow fiber bioreactors (Fibercell Systems, Frederick, Md.) and purified from serum-free supernatants on a protein G (4C12) or protein A (TL1A-Ig) column (GE Healthcare, UK). For flow cytometry analysis, single cell suspensions were prepared from spleen and lymph nodes. 10^6 cells were pre-blocked with anti-mouse CD16/CD32 and stained with different antibody combinations. Intracellular staining was performed according to standard procedures. Flow cytometric acquisition was performed on a Becton Dickinson Fortessa instrument and […] or FlowJo software was used for analysis.
Human fetal livers from elective terminations (12-20 weeks of gestational age, Advanced Bioscience Resources) were acquired on a fee for service basis. CD34+ cells were enriched using immunomagnetic beads according to the manufacturer's instructions following density gradient centrifugation of single cell suspensions (CD34+ selection kit; Miltenyi Biotec, Auburn, Calif.). Purity of CD34+ cells isolated was evaluated by flow cytometry and was >85%. Cells were aliquotted and frozen for later HLA typing and transplanted into sub-lethally irradiated neonatal NSG mice. HLA typed CD34+ cells hematopoietic stem cells (HSC) were placed into culture containing 10% human serum, 10 ng/ml each of interleukin (IL)-3, IL-6 and stem cell factor (SCF) in IMDM for 3-5 days. On the day of transplant, cells were harvested from culture dishes and washed in HBSS and CFU and LTC-IC assays were performed to evaluate proliferation and differentiation potential. These assays were performed using standard reagents (StemCell Inc.) and methods as published by the manufacturer. CFU potential was identical to bone marrow progenitor cells following 14 day culture in methylcellulose media supplemented with SCF, GM-CSF, IL-3 and EPO. These assays readily reveal whether gross morphological characteristics and colony numbers of isolated HSC are within expected limits. One-day old NSG mice generated from timed matings were housed with foster-dams for 24 hours post-irradiation (sub-lethal, 1 Gy, whole body irradiation) at which time they are transplanted with 1×10^6−2×10^6 pre-cultured HSC intra-hepatically (i.h.) in a volume of 20 μl using a Hamilton syringe and a 30 gauge ½ inch needle. The pups were immediately returned to their foster-dams and allowed to nurse until weaning at 28 days. Human/mouse chimerism was evaluated in peripheral blood at 15 weeks of age by determining the relative percentages of murine and human CD45+ cells by flow cytometry. Once human CD45+ cells were detected, analysis was extended to include human CD3, CD4, CD8, CD11c and CD19 on all blood collections. Successfully engrafted mice were selected when the fraction of human CD45+ cells in peripheral blood exceeded 60% (NSG-hu).
To determine the in vivo activity of hTL1A-Ig on human Tregs, humanized mice were generated using human fetal liver CD34^+ cells transferred into NOD, SCID, common γ-chain deficient (NSG) recipient mice, as described above. […] The majority of human CD45+ lymphocytes in the spleen were T cells (˜50%) followed by B cells (˜35%), NK cells (˜2-3%) and dendritic cells (˜1%).

[2] = Safety of TL1A-Ig in rhesus macaques (observations, chemistries, CBC, histopathology); format: in vivo; details: necropsy day 21, 1.5 mg/kg; for histopathology of midbrain, brainstem, liver and pancreas: H&E sections; for histopathology of sigmoid colon / histopathology of terminal ileum: four out of four animals
Protocol: (§1) Safety and Activity of TL1A-Ig in Rhesus Macaque The safety and efficacy of TL1A-Ig in non-human primates (NHP) (Indian-origin macaca mulatta) were determined. Following routine screening and 60-day quarantine, rhesus macaque (rm) TL1A-Ig or human (h) TL1A-Ig were administered to the NHP on Day 0 by intravenous (IV) bolus infusion (15 minutes) Animal weights and cage-side observations were performed daily and peripheral blood was collected for analysis of complete blood counts, routine chemistries, CD4 TruCounts, serum isolation and flow cytometry analysis. For flow cytometry analysis, peripheral blood cells were counted on a Countess automated cell counter and aliquots of 1.5×10^6 cells were distributed per sample tube, FMO (Fluorescent Minus One), controls, and compensation tubes. Test samples were stained in D-PBS and 0.5% FBS with 1 μL/mL live dead aqua blue discriminator (Life Technologies). Test samples and appropriate controls were surface stained for 30 minutes with the indicated cocktails of antibodies (purchased from BD, Becton Dickinson, eBioscience or Life Technologies). For intracellular staining, cells were permeabilized with Fix/perm solution (eBioscience) for 30 minutes at 4° C. Cells were washed and stained intracellularly with anti-FoxP3 antibody for 30 minutes. Following staining, cells were washed and resuspended in 300 μL, FACs wash buffer for acquisition on a BD™ LSR11 flow cytometer (Beckton Dickinson (BD)). Cells were acquired and analysis was done of FlowJo software (Tree Star, Inc., Ashland, Oreg.). For CD4/CD8 Trucounts, CD45, CD3, CD4 and CD8 antibodies were dispensed in TruCount tubes (BD, Cat.No. 340334); 50 uL samples were added and allowed to stain for 15 minutes at room temperature in the dark. Subsequently, samples are lysed with 450 μL FACS lysing solution, and incubated for 15 minutes. Sample tubes were analyzed in the cytometer (Calibur, BD). The events were gated on lymphocytes in side scatter (SSC) dot plot and the CD45-positive population was selected, and then reported: CD3+CD4+ T cells, and CD3+CD8+ T cells. For multiplex analysis of serum cytokines, serum from the indicated days was collected and samples and controls for standard curves were placed in filter plates, and then diluted ¼, and incubated for 2 hour at room temperature with anti-cytokine beads. The content was removed and washed 2 times with the buffer before adding a mixture of biotinylated detection antibodies to each well. After incubating with detection antibody for 1 hour, plates were washed 2 times and incubated for 30 minutes with streptavidin-PE. Plates were again washed and wells were resuspended with 150 μL sheath fluid; plates were then read and analyzed on the Luminex® SD Analyzer (Life Technologies, Inc.). The PE signal (Median Fluorescent Intensity, MFI) is proportional to the amount of each cytokine present in the sample; concentrations were calculated from the standard curve.
(§2) An inherent limitation of rodent animal models is related to the highly controlled and restricted history of foreign antigen challenge of laboratory animals bred and housed under pathogen-free conditions. Given the antigen-dependent activity of TNFRSF25 agonists, this limitation has important consequences for translational studies of these agents into NHP, wherein the history of foreign antigen exposure is dramatically more diverse. To address this question, rhesus macaque TL1A-Ig (rmTL1A-Ig) was produced and tested in NHP. Treatment-naïve Indian-origin rhesus macaques (nonhuman primates (NHP)) were procured, housed and treated by expert personnel at Advanced Bioscience Laboratories (ABL, Rockville, Md.). Rhesus macaque TL1A-Ig (rmTL1A-Ig) and human (h) TL1A-Ig were manufactured and purified as described above and shipped to ABL personnel at the indicated concentration in blinded tubes diluted in a total volume of 10 ml PBS. […]

[3] = Serum half-life of TL1A-Ig in rhesus macaques; format: in vivo, rhesus macaque; details: NHP serum, IV, one-phase exponential decay model
Protocol: Safety and Activity of TL1A-Ig in Rhesus Macaque The safety and efficacy of TL1A-Ig in non-human primates (NHP) (Indian-origin macaca mulatta) were determined. Following routine screening and 60-day quarantine, rhesus macaque (rm) TL1A-Ig or human (h) TL1A-Ig were administered to the NHP on Day 0 by intravenous (IV) bolus infusion (15 minutes) Animal weights and cage-side observations were performed daily and peripheral blood was collected for analysis of complete blood counts, routine chemistries, CD4 TruCounts, serum isolation and flow cytometry analysis. For flow cytometry analysis, peripheral blood cells were counted on a Countess automated cell counter and aliquots of 1.5×10^6 cells were distributed per sample tube, FMO (Fluorescent Minus One), controls, and compensation tubes. Test samples were stained in D-PBS and 0.5% FBS with 1 μL/mL live dead aqua blue discriminator (Life Technologies). […] Sample tubes were analyzed in the cytometer (Calibur, BD). […] Plates were again washed and wells were resuspended with 150 μL sheath fluid; plates were then read and analyzed on the Luminex® SD Analyzer (Life Technologies, Inc.). The PE signal (Median Fluorescent Intensity, MFI) is proportional to the amount of each cytokine present in the sample; concentrations were calculated from the standard curve. […]

[4] = test system: peripheral blood Treg cells; test: Peripheral blood Treg expansion, T cell subsets and serum cytokines in rhesus macaques; format: in vivo, rhesus macaque; details: for expansion of the Treg compartment at peak: 1.5 mg/kg, single IV; for expansion of the Treg compartment at peak / time of peak relative fold-expansion of Treg: peripheral blood; for serum levels of IFN-γ and TGF-β: by day 4 after treatment; for serum levels of IL-2, IL-4, IL-5, IL-10 or TNF-α: day 0, day 2, day 4, Luminex
Protocol: as §1, §2

Molecule | total frequency of Treg and proportion of Treg in active proliferation (Ki67+) ([1]; day 5, spleen, lymph node and small intestine) | expression of CD69 in CD4+ and CD8+ conventional cells ([1]; lymph nodes) | mean Treg value ([1]; lymph nodes, day 5, 100 μg i.p.) | mean Treg value (±SEM) ([1]; small intestine, day 5, 100 μg i.p.) [%] | mean Treg value (±SEM), FoxP3+ out of total CD4+CD25hiCD127- cells ([1]; spleen, day 5, 100 μg i.p.) [%] | overall balance of hCD45+, hCD4+ or hCD8+ cells ([1]; spleen, lymph nodes, small intestine, day 5 after injection) | expression of CD69 in CD8+ conventional cells ([1]; spleen, p=0.0064) | expression of CD69 in CD4+ conventional cells ([1]; spleen, p=0.0363) | histopathology of midbrain, brainstem, liver and pancreas [2] | histopathology of sigmoid colon [2] | histopathology of terminal ileum [2] | half-life [3] [h] | expansion of the Treg compartment at peak [4] | serum levels of IFN-γ and TGF-β [4] | serum levels of IL-2, IL-4, IL-5, IL-10 or TNF-α [4] | time of peak relative fold-expansion of Treg [4] [days post-treatment] | Treg expansion ([4]; 0.5 mg/kg dose versus 1.5 mg/kg)
hTL1A-Ig: extracellular domain of human TL1A fused to hinge-CH2-CH3 domain of human IgG1, SEQ ID NO: 16 | significant increase | not in lymph nodes | 1.94±0.21 | 4.54±0.69 | 1.71±0.24 | did not significantly alter | increased expression of CD69 | increased expression of CD69 | no evidence of inflammation or pathology | mild, multifocal, lymphoplasmacytic infiltrates | mild, diffuse mucosal and submucosal edema | 12.5 | approximately 3 fold | trend toward decreased levels | no detectable changes | 4 | –
rmTL1A-Ig: extracellular domain of rhesus macaque TL1A fused to hinge-CH2-CH3 domain of rhesus macaque IgG1, SEQ ID NO: 10 (protein) METDTLLLWVLLLWVPGSTGDLEIKTCGGGSKPPTCPPCPAPELLGGPSVFLFPPKPKDTLMISRTPEVTCVVVDVSQEDPDVKFNWYVNGAEVHHAQTKPRETQYNSTYRVVSVLTVTHQDWLNGKEYTCKVSNKALPVPIQKTISKDKGQPREPQVYTLPPSREELTKNQVSLTCLVKGFYPSDIVVEWENSGQPENTYKTTPPVLDSDGSYFLYSKLTVDKSRWQQGNVFSCSVMHEALHNHYTQEFKGQEFAPSHQQVYAPLRADGDKPRAHLTVVTQTPTQHFKNQFPALHWEHELGLAFTKNRMNYTNKFLLIPESGDYFIYSQVTFRGMTSECSEIRQAGRPNKPDSITVVITKVTDSYPEPTQLLMGTKSVCEVGSNWFQPIYLGPMFSLQEGDKLMVNVSDISLVDYTKEDKTFFGAFLL | – | – | – | – | – | – | – | – | no evidence of inflammation or pathology | mild, multifocal, lymphoplasmacytic infiltrates | mild, diffuse mucosal and submucosal edema | – | approximately 3 fold | trend toward decreased levels | no detectable changes | 4 | non-significantly reduced trend
